Laboratory results as given in patent US20240156982A1, “METHOD OF FORMING PEPTIDE-COATED NANOPARTICLES” (Research Foundation of the City University of New York, priority 2022, published 2024).

How the values were obtained:
HUVEC = assay: MTT viability assay; format: cell-based, human
Method: (§1) FIG. 8 depicts a series of graphs showing in vitro viability with RGDFFF (SEQ ID NO: 1)-CA4 NP. Each column represents the mean and standard deviation of N=3 and p<0.005 (HUVEC, OVCAR-3), p<0.04 (TOV-21G, OV-90), p<0.03 (CP70), p<0.02 (A2780), p<0.01 (ES-2), p<0.12 (SKOV-3).
(§2) The biological activity of RGDFFF (SEQ ID NO: 1)-CA4 NPs in cell culture was also evaluated. As determined by HPLC, the CA4 drug payload in the NP was 0.2 wt. %. First, IC50 values were established for the NPs in all cells and subsequently performed MTT viability assays in HUVEC and OvCA cells using the respective IC50 values. The RGDFFF-CA4 NPs were compared to cells only without treatment, free CA4, and empty RGDFFF (SEQ ID NO: 1)-NPs without CA4, as shown in FIG. 8. […] Optical microscopy was used to examine the morphological changes in the cells after incubation with RGDFFF (SEQ ID NO: 1)-CA4 NP. This was done since CA4 is a microtubule depolymerizing agent that disrupts internal cell architecture.

A2780 = assay: MTT viability assay; format: cell-based
Method: as §1, §2

CP70 = assay: MTT viability assay; format: cell-based
Method: as §1, §2

ES-2 = assay: MTT viability assay; format: cell-based
Method: as §1, §2

OV-90 = assay: MTT viability assay; format: cell-based
Method: as §1, §2

OVCAR-3 = assay: MTT viability assay; format: cell-based
Method: as §1, §2

SKOV-3 = assay: MTT viability assay; format: cell-based
Method: as §1, §2

TOV-21G = assay: MTT viability assay; format: cell-based
Method: as §1, §2

[1] = cited from earlier work

## COc1ccc(/C=C\c2cc(OC)c(OC)c(OC)c2)cc1O [CA4, combretastatin A4]
HUVEC
  IC50: 2 nM
A2780
  IC50: 5 nM
CP70
  IC50: 4 nM
ES-2
  IC50: 5 nM
OV-90
  IC50: 100 nM
OVCAR-3
  IC50: 2.5 nM
SKOV-3
  IC50: 10 nM
TOV-21G
  IC50: 25 nM
[1]
  solubility in water: not soluble in water
